In the test the target is GABAA receptor. The experiment in a line: Steroid inhibition of [35S]-TBPS binding, rat brain cortical membranes. Conditions: 3 nM [35S]-TBPS, in the presence of 5 mM GABA. As to the method:
[^35S]-t-Butylbicyclophosphorothionate (TBPS) binding assays using rat brain cortical membranes in the presence of 5 mM GABA has been described (Gee et al, J. Pharmacol. Exp. Ther. 1987, 241, 346-353; Hawkinson et al, Mol. Pharmacol. 1994, 46, 977-985; Lewin, A. H et al., Mol. Pharmacol. 1989, 35, 189-194).
Briefly, cortices are rapidly removed following decapitation of carbon dioxide-anesthetized Sprague-Dawley rats (200-250 g). The cortices are homogenized in 10 volumes of ice-cold 0.32 M sucrose using a glass/teflon homogenizer and centrifuged at 1500×g for 10 min at 4° C. The resultant supernatants are centrifuged at 10,000×g for 20 min at 4° C. to obtain the P2 pellets. The P2 pellets are resuspended in 200 mM NaCl/50 mM Na—K phosphate pH 7.4 buffer and centrifuged at 10,000×g for 10 min at 4° C. This washing procedure is repeated twice and the pellets are resuspended in 10 volumes of buffer. Aliquots ([…]) of the membrane suspensions are incubated with 3 nM [^35S]-TBPS and […] aliquots of test drug dissolved in dimethyl sulfoxide (DMSO) (final 0.5%) in the presence of 5 mM GABA. The incubation is brought to a final volume of 1.0 mL with buffer. Nonspecific binding is determined in the presence of […] and ranged from 15 to 25%. Following a 90 min incubation at room temp, the assays are terminated by filtration through glass fiber filters (Schleicher and Schuell No. 32) using a cell harvester (Brandel) and rinsed three times with ice-cold buffer. Filter bound radioactivity is measured by liquid scintillation spectrometry. Non-linear curve fitting of the overall data for each drug averaged for each concentration is done using Prism (GraphPad). […] The concentration of test compound producing 50% inhibition (IC50) of specific binding and the maximal extent of inhibition (Imax) are determined for the individual experiments with the same model used for the overall data and then the means±SEM.s of the individual experiments are calculated.
Various compounds are or can be screened to determine their potential as modulators of [^35S]-TBPS binding in vitro. These assays are or can be performed in accordance with the above
As to `COC[C@@]1(O)CC[C@@]2(C)[C@H](CC[C@@H]3[C@@H]2CC[C@@]2(C)[C@H]3CC[C@@H]2[C@](C)(Cn2cc(C#N)cn2)OC)C1` [Compound 55, 1-((R)-2-((3R,5R,8R,9S,10S,13S,14S,17S)-3-hydroxy-3-(methoxymethyl)-10,13-dimethylhexadecahydro-1H-cyclopenta[a]phenanthren-17-yl)-2-methoxypropyl)-1H-pyrazole-4-carbonitrile], the IC50 (usually the concentration needed to halve the response being measured) lay in the range of 0.1 to 1 µM.

For the compound `CC[C@@]1(O)CC[C@H]2[C@H](CC[C@@H]3[C@@H]2CC[C@@]2(C)[C@H]3CC[C@@H]2[C@](C)(O)Cn2cc(C#N)cn2)C1` [Compound 11, 1-((S)-2-((3R,5R,8R,9R,10S,13S,14S,17S)-3-ethyl-3-hydroxy-13-methylhexadecahydro-1H-cyclopenta[a]phenanthren-17-yl)-2-hydroxypropyl)-1H-pyrazole-4-carbonitrile], the IC50 is below 0.1 µM.

Consider `COC[C@@]1(O)CC[C@H]2[C@H](CC[C@@H]3[C@@H]2CC[C@@]2(C)[C@H]3CC[C@@H]2[C@@](C)(O)Cn2cc(C#N)cn2)C1` [Compound 30, 1-((R)-2-hydroxy-2-((3R,5R,8R,9R,10S,13S,14S,17S)-3-hydroxy-3-(methoxymethyl)-13-methylhexadecahydro-1H-cyclopenta[a]phenanthren-17-yl)propyl)-1H-pyrazole-4-carbonitrile], for which the concentration for half-maximal inhibition (IC50) lay within 0.1 to 1 µM.

Regarding `COC[C@@H]1C[C@H]2[C@H](CC[C@@H]3[C@@H]2CC[C@@]2(C)[C@H]3CC[C@@H]2[C@@](C)(O)Cn2cc(C#N)cn2)C[C@]1(C)O` [Compound 59A, 1-((R)-2-hydroxy-2-((2S,3S,5R,8R,9R,10S,13S,14S,17S)-3-hydroxy-2-(methoxymethyl)-3,13-dimethylhexadecahydro-1H-cyclopenta[a]phenanthren-17-yl)propyl)-1H-pyrazole-4-carbonitrile], the IC50 lay in the range of 0.1 to 1 µM.

Turning to `CCC[C@@]1(O)CC[C@H]2[C@H](CC[C@@H]3[C@@H]2CC[C@@]2(C)[C@H]3CC[C@@H]2[C@@](C)(O)Cn2ccc(C#N)n2)C1` [Compound 23, 1-((R)-2-hydroxy-2-((3R,5R,8R,9R,10S,13S,14S,17S)-3-hydroxy-13-methyl-3-propylhexadecahydro-1H-cyclopenta[a]phenanthren-17-yl)propyl)-1H-pyrazole-3-carbonitrile], the IC50 is 0.1 to 1 µM.

With `CC[C@H]1C[C@H]2[C@H](CC[C@@H]3[C@@H]2CC[C@@]2(C)[C@H]3CC[C@@H]2[C@](C)(O)Cn2cc(C#N)cn2)C[C@]1(C)O` [Compound 34, 1-((S)-2-((2S,3S,5R,8R,9R,10S,13S,14S,17S)-2-ethyl-3-hydroxy-3,13-dimethylhexadecahydro-1H-cyclopenta[a]phenanthren-17-yl)-2-hydroxypropyl)-1H-pyrazole-4-carbonitrile], the IC50 was below 0.1 µM.

Consider `C[C@@]1(O)CC[C@H]2[C@H](CC[C@@H]3[C@@H]2CC[C@]2(C)[C@@H](C4(Cn5cc(C#N)cn5)CC4)CC[C@@H]32)C1` [Compound 39, 1-((1-((3R,5R,8R,9R,10S,13S,14S,17S)-3-hydroxy-3,13-dimethylhexadecahydro-1H-cyclopenta[a]phenanthren-17-yl)cyclopropyl)methyl)-1H-pyrazole-4-carbonitrile], for which the IC50 is below 0.1 µM.

Consider `C[C@@]1(O)CC[C@H]2[C@H](CC[C@@H]3[C@@H]2CC[C@@]2(C)[C@H]3[C@H](C3CC3)C[C@@H]2[C@@](C)(O)Cn2cc(C#N)cn2)C1` [Compound 46, 1-((R)-2-((3R,5R,8R,9R,10S,13S,14S,15S,17S)-15-cyclopropyl-3-hydroxy-3,13-dimethylhexadecahydro-1H-cyclopenta[a]phenanthren-17-yl)-2-hydroxypropyl)-1H-pyrazole-4-carbonitrile], for which the IC50 was below 0.1 µM.

Take `C[C@@]1(O)CC[C@H]2[C@H](CC[C@@H]3[C@@H]2CC[C@@]2(C)[C@H]3CC[C@@H]2[C@](C)(O)Cn2cc(C#N)cn2)C1` [Compound 2, 1-((S)-2-hydroxy-2-((3R,5R,8R,9R,10S,13S,14S,17S)-3-hydroxy-3,13-dimethylhexadecahydro-1H-cyclopenta[a]phenanthren-17-yl)propyl)-1H-pyrazole-4-carbonitrile]: the IC50 was below 0.1 µM.

As to `CCC[C@@]1(O)CC[C@@]2(CC)[C@H](CC[C@H]3[C@@H]4CC[C@H]([C@](C)(O)Cn5cc(C#N)cn5)[C@@]4(C)CC[C@@H]32)C1` [Compound 44, 1-((S)-2-((3R,5R,8S,9S,10S,13S,14S,17S)-10-ethyl-3-hydroxy-13-methyl-3-propylhexadecahydro-1H-cyclopenta[a]phenanthren-17-yl)-2-hydroxypropyl)-1H-pyrazole-4-carbonitrile], the IC50 is below 0.1 µM.

Regarding `CCC[C@@]1(O)CC[C@@]2(C)[C@H](CC[C@@H]3[C@@H]2CC[C@@]2(C)[C@H]3CC[C@@H]2[C@@](C)(O)Cn2cc(C#N)cn2)C1` [Compound 27, 1-((R)-2-hydroxy-2-((3R,5R,8R,9S,10S,13S,14S,17S)-3-hydroxy-10,13-dimethyl-3-propylhexadecahydro-1H-cyclopenta[a]phenanthren-17-yl)propyl)-1H-pyrazole-4-carbonitrile], the IC50 fell in the range of 0.1 to 1 µM.

Turning to `CCC[C@@]1(O)CC[C@H]2[C@H](CC[C@@H]3[C@@H]2CC[C@@]2(C)[C@H]3CC[C@@H]2[C@](C)(Cn2cc(C#N)cn2)OC)C1` [Compound 37, 1-((R)-2-((3R,5R,8R,9R,10S,13S,14S,17S)-3-hydroxy-13-methyl-3-propylhexadecahydro-1H-cyclopenta[a]phenanthren-17-yl)-2-methoxypropyl)-1H-pyrazole-4-carbonitrile], the IC50 is 0.1 to 1 µM.

In the case of `CC[C@]12CC[C@@](C)(O)C[C@H]1CC[C@H]1[C@@H]3CC[C@H]([C@](C)(Cn4cc(C#N)cn4)OC)[C@@]3(C)CC[C@@H]12` [Compound 6, 1-((R)-2-((3R,5R,8S,9S,10S,13S,14S,17S)-10-ethyl-3-hydroxy-3,13-dimethylhexadecahydro-1H-cyclopenta[a]phenanthren-17-yl)-2-methoxypropyl)-1H-pyrazole-4-carbonitrile], the IC50 was below 0.1 µM.

In the case of `COC[C@H]1C[C@H]2[C@H](CC[C@@H]3[C@@H]2CC[C@@]2(C)[C@H]3CC[C@@H]2[C@](C)(O)Cn2cc(C#N)cn2)C[C@]1(C)O` [Compound 58, 1-((S)-2-hydroxy-2-((2R,3S,5R,8R,9R,10S,13S,14S,17S)-3-hydroxy-2-(methoxymethyl)-3,13-dimethylhexadecahydro-1H-cyclopenta[a]phenanthren-17-yl)propyl)-1H-pyrazole-4-carbonitrile], the IC50 was below 0.1 µM.

On to `CCC[C@@]1(O)CC[C@H]2[C@H](CC[C@@H]3[C@@H]2CC[C@@]2(C)[C@H]3CC[C@@H]2[C@](C)(O)Cn2cc(C#N)cn2)C1` [Compound 7, 1-((S)-2-hydroxy-2-((3R,5R,8R,9R,10S,13S,14S,17S)-3-hydroxy-13-methyl-3-propylhexadecahydro-1H-cyclopenta[a]phenanthren-17-yl)propyl)-1H-pyrazole-4-carbonitrile], for which the IC50 was below 0.1 µM.

As to `CCC[C@@]1(O)CC[C@H]2[C@@H](CC[C@@H]3[C@@H]2CC[C@@]2(C)[C@H]3CC[C@@H]2[C@@](C)(O)Cn2cc(C#N)cn2)C1` [Compound 10, 1-((R)-2-hydroxy-2-((3R,5S,8R,9R,10S,13S,14S,17S)-3-hydroxy-13-methyl-3-propylhexadecahydro-1H-cyclopenta[a]phenanthren-17-yl)propyl)-1H-pyrazole-4-carbonitrile], the IC50 is at least 1 µM.

For the compound `CCC[C@@]1(O)CC[C@H]2[C@H](CC[C@@H]3[C@@H]2CC[C@@]2(C)[C@H]3CC[C@@H]2[C@@](C)(O)Cn2cc(C#N)cn2)C1` [Compound 8, 1-((R)-2-hydroxy-2-((3R,5R,8R,9R,10S,13S,14S,17S)-3-hydroxy-13-methyl-3-propylhexadecahydro-1H-cyclopenta[a]phenanthren-17-yl)propyl)-1H-pyrazole-4-carbonitrile], the IC50 fell in the range of 0.1 to 1 µM.

For `CC[C@@]1(O)CC[C@H]2[C@H](CC[C@@H]3[C@@H]2CC[C@@]2(C)[C@H]3CC[C@@H]2[C@@](C)(O)Cn2cc(C#N)cn2)C1` [Compound 12, 1-((R)-2-((3R,5R,8R,9R,10S,13S,14S,17S)-3-ethyl-3-hydroxy-13-methylhexadecahydro-1H-cyclopenta[a]phenanthren-17-yl)-2-hydroxypropyl)-1H-pyrazole-4-carbonitrile], the IC50 was 0.1 to 1 µM.

These data come from US20250236639A1, “NEUROACTIVE STEROIDS AND COMPOSITIONS THEREOF” (Sage Therapeutics, Inc., priority 2019, published 2025).
